Like-named read-outs stand apart in the source and are kept apart here. Non-standard residues stand in square brackets, D forms with d. Residues, ends and D or L forms follow the SMILES beside them. Phe(4-F) = N[C@@H](Cc1ccc(F)cc1)C(=O)O
Columns and labels:
[1] = molecular target: CDK2/cyclin A (Homo sapiens, UniProt P20248); assay: CDK2/cyclin A kinase activity assay; type: biochemical
[2] = molecular target: cyclin A (Homo sapiens, UniProt P20248); assay: Competitive cyclin A binding assay
[3] = read-out: IC50 CDK2/cyclin A kinase activity

Sequence of cyclin A (P20248 whole entry): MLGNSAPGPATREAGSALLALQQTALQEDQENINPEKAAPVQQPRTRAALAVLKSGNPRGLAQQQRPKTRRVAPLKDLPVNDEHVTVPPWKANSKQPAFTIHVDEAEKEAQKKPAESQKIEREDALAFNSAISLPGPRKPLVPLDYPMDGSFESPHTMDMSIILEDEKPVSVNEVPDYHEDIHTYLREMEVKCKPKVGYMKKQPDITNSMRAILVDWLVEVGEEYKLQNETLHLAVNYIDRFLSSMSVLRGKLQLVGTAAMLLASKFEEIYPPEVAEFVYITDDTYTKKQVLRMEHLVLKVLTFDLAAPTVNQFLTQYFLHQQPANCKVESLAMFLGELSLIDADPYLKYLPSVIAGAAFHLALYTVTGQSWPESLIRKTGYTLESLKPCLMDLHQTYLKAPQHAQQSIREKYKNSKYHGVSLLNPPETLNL

Row | SMILES | IC50 [1] [µM] | IC50 [1, 3] [µM] | IC50 [2] [µM]
1 | CC(=O)N[C@@H](CCCN=C(N)N)C(=O)N[C@@H](CCCN=C(N)N)C(=O)N[C@@H](CC(C)C)C(=O)N[C@@H](CC(N)=O)C(=O)N[C@@H](Cc1ccccc1)C(N)=O [SEQ ID NO: 30, Ac-Arg-Arg-Leu-Asn-Phe-NH2] | > 50 | – | –
2 | CC(C)C[C@H](NC(=O)[C@H](CCCNC(=N)N)NC(=O)[C@@H](N)CCCNC(=N)N)C(=O)N[C@@H](Cc1ccc(F)cc1)C(N)=O [SEQ ID NO: 29, H-Arg-Arg-Leu-—-(p-F-Phe)-NH2] (H-RRL[Phe(4-F)]-NH2) | – | 50 | 19
3 | CC(C)C[C@H](NC(=O)[C@H](CCCNC(=N)N)NC(=O)[C@@H](N)CCCNC(=N)N)C(=O)N[C@@H](Cc1ccccc1)C(N)=O [SEQ ID NO: 20, H-Arg-Arg-Leu-Phe-NH2] (H-RRLF-NH2) | – | > 50 | 8.1
